# Laboratory results from paper PMC3364195, “Fractionation of a Herbal Antidiarrheal Medicine Reveals Eugenol as an Inhibitor of Ca^2+-Activated Cl^− Channel TMEM16A” (PLoS ONE, 2012).
# Several values for one entry are separate records, joined by “and”; a condition that tells them apart may be missing. Equal values may be shown once. Entries after “also recorded” stand apart in the source; their conditions may differ.
# Experiments:
# human TMEM16A [1] = target: T1, human TMEM16A (Homo sapiens, UniProt Q5XXA6); assay: Short-circuit current in TMEM16A-expressing FRT cells; assay type: cell-based
# T1 sequence (Q5XXA6 1-986): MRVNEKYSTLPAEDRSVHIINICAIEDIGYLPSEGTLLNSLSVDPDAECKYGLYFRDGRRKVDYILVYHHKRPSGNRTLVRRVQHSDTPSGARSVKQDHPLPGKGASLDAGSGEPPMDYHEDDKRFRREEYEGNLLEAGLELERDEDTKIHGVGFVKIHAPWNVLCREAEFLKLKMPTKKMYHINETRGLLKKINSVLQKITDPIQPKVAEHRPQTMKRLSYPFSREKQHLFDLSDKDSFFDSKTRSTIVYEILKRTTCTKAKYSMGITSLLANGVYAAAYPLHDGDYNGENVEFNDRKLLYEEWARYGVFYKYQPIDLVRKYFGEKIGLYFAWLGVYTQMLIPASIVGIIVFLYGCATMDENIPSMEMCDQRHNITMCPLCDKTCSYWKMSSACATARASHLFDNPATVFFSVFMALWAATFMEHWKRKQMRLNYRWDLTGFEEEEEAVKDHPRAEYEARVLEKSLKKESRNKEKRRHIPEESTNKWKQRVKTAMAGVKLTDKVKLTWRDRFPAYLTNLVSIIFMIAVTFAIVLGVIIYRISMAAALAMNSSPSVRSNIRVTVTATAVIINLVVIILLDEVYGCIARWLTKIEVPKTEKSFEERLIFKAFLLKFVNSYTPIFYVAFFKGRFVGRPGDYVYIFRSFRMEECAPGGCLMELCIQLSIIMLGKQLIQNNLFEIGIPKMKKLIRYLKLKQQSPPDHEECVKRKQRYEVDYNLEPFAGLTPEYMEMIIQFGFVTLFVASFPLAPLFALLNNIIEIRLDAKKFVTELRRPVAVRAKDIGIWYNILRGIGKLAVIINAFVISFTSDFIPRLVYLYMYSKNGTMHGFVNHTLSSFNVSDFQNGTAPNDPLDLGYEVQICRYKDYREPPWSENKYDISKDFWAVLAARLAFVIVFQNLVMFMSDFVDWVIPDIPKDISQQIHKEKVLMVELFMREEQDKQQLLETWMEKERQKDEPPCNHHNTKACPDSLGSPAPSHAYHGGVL
# Protocol: (§1) FRT cells stably expressing human TMEM16A and the halide sensor YFP-H148Q/I152L/F46L were generated as described. Cells were plated in 96-well black-walled microplates (Corning Inc., Corning, NY) at a density of 20,000 cells per well in Coon's modified F12 medium supplemented with 5% fetal calf serum, 2 mM L-glutamine, 100 U/mL penicillin and 100 µg/mL streptomycin. T84 cells were cultured in DMEM/Ham's F-12 (1∶1) medium containing 10% FBS, 100 U/ml penicillin and 100 µg/ml streptomycin. A commercially available Thai herbal formulation (Krisanaklan, Osotspa Inc., Bangkapi, Thailand) consists of an ethanol/water (54∶46) extract in which each 100 mL was obtained from 10 g of Aquilaria crassna bark, 33.3 g of clove flower bud, 2 g of Terminalia triptera Stapf bark and 4.8 g of camphor flower bud. HPLC grade solvents were purchased from Fisher Scientific (Fairlawn, VA) and EMD Chemical Inc. (Philadelphia, PA). Eugenol and eugenol analog 2 were purchased from Sigma-Aldrich (St. Louis, MO). Other eugenol analogs were purchased from Fisher Scientific (Pittsburgh, PA).
# (§2) Snapwell inserts containing TMEM16A-expressing FRT cells or T84 cells were mounted in Ussing chambers (Physiologic Instruments, San Diego, CA). Activators and inhibitors (herbal formulation, eugenol, ionomycin, tannic acid, forskolin, CFTRinh-172, ATP, Eact, T16Ainh-A01) were added to the apical solution and an equal volume of vehicle was added at the same time to the basolateral solution. Symmetrical HCO3 ^−-buffered solutions were used for T84 cells. For FRT cells, the hemichambers were filled with a half-Cl^− solution (apical) and the HCO3 ^−-buffered solution (basolateral), and the basolateral membrane was permeabilized with 250 µg/mL amphotericin B. Cells were bathed for a 10 min stabilization period and aerated with 95% O2/5% CO2 at 37°C or room temperature. Short-circuit current was measured using an EVC4000 Multi-Channel V/I Clamp (World Precision Instruments, Sarasota, FL).
# human TMEM16A [2] = target: T1, human TMEM16A; assay: Plate-reader YFP fluorescence assay of TMEM16A-mediated I- influx in FRT cells; assay type: cell-based
# Protocol: as §1, with “HPLC grade solvents were purchased from Fisher Scientific (Fairlawn, VA) and EMD Chemical Inc. (Philadelphia, PA). Eugenol and eugenol analog 2 were purchased from Sigma-Aldrich (St. Louis, MO). Other eugenol analogs were purchased from Fisher Scientific (Pittsburgh, PA).” left out
# YFP fluorescence measurements in TMEM16A expressing FRT cells were carried out on a fluorescence plate reader (Optima; BMG Labtech, Durham, NC) equipped with dual syringe pumps and 500±10 nm excitation and 535±15 nm emission filters as described. […] After 10 min incubation, each well was assayed individually for TMEM16A-mediated I^− influx by recording fluorescence continuously (400 ms per point) for 2 s (baseline), followed by addition of 100 µL of a 140 mM I^− solution containing 200 µM ATP. The initial rate of I^− influx was computed from fluorescence data by non-linear regression.
# [3] = tested on: hyperpolarization-activated cyclic nucleotide-gated Na+ and K+ channels; parameters: method as in earlier work; details: trigeminal ganglion neurons; ref 27 (Yeon et al.); read-out: IC50 for inhibition of HCN channels; cited from earlier work
# CFTR = target: T2, CFTR (Homo sapiens, UniProt P13569); assay: Short-circuit current in FRT cells expressing wild type CFTR; assay type: cell-based; details: forskolin 20 µM stimulated
# T2 construct: expressed in transfected cells; host or cells: FRT cells
# T2 sequence (P13569 whole entry, species assumed): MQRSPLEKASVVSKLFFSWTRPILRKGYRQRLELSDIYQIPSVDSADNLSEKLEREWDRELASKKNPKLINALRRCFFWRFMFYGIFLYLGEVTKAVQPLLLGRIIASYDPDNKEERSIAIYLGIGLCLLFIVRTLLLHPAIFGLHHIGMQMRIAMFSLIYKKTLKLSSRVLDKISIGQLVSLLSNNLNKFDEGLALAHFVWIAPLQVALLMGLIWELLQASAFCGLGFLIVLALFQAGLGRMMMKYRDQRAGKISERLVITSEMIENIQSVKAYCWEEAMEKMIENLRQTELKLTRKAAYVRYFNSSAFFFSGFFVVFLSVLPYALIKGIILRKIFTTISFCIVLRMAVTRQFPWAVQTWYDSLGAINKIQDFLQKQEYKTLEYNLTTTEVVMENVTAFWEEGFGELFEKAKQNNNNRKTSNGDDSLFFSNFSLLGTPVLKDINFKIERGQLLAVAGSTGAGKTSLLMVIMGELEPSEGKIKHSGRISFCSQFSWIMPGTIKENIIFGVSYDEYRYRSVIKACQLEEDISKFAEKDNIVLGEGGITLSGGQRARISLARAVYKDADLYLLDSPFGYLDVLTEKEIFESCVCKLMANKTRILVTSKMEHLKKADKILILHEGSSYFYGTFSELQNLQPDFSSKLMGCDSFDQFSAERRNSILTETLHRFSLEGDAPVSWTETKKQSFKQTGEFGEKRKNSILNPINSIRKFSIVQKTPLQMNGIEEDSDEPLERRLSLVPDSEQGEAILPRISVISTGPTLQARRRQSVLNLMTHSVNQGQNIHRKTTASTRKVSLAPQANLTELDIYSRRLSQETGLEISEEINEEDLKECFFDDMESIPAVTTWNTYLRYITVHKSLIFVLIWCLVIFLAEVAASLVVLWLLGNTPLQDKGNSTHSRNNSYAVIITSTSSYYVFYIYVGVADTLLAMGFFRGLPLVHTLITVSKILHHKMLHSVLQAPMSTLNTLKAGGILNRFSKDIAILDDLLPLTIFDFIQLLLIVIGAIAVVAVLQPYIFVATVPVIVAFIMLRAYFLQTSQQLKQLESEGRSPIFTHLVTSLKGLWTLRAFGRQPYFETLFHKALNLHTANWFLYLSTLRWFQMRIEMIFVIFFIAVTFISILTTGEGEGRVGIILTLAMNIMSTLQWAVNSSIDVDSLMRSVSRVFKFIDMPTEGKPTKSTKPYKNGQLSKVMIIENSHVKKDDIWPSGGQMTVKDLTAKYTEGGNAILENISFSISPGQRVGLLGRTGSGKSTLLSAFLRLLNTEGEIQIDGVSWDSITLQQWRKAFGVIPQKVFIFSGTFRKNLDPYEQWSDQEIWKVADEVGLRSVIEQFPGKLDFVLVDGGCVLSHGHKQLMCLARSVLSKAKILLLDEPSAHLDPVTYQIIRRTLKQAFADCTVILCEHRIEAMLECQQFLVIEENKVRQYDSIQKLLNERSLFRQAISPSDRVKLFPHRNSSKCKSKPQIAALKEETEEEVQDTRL
# Protocol: Snapwell inserts containing TMEM16A-expressing FRT cells or T84 cells were mounted in Ussing chambers (Physiologic Instruments, San Diego, CA). Activators and inhibitors (herbal formulation, eugenol, ionomycin, tannic acid, forskolin, CFTRinh-172, ATP, Eact, T16Ainh-A01) were added to the apical solution and an equal volume of vehicle was added at the same time to the basolateral solution. […] For FRT cells, the hemichambers were filled with a half-Cl^− solution (apical) and the HCO3 ^−-buffered solution (basolateral), and the basolateral membrane was permeabilized with 250 µg/mL amphotericin B. Cells were bathed for a 10 min stabilization period and aerated with 95% O2/5% CO2 at 37°C or room temperature. Short-circuit current was measured using an EVC4000 Multi-Channel V/I Clamp (World Precision Instruments, Sarasota, FL).
# [4] = cited from earlier work
# [5] = tested on: Ca2+ current in cardiac myocytes; parameters: method as in PMID 15550789; details: read-out: IC50 for inhibition of Ca2+ current; cited from earlier work
# [6] = tested on: cytoplasmic Ca2+ elevation in FRT cells; assay: Cytoplasmic Ca2+ measurement (Fluo-4) in FRT cells; assay type: cell-based; details: Fluo-4 fluorescence, 10 min incubation
# Protocol: FRT cells in 96-well plates were loaded with Fluo-4 NW (Invitrogen, Carlsbad, CA) at 48 h after plating. Fluo-4 fluorescence was measured continuously using a FLUOstar Optima fluorescence plate reader (BMG Labtechnologies) equipped with syringe pump for addition of ATP.
# TMEM16A = assay: Whole-cell patch-clamp on TMEM16A-expressing FRT cells; assay type: cell-based, human; details: 150 µM eugenol, 5 µM Eact, ±80 mV
# Protocol: Whole-cell recordings were made at room temperature on TMEM16A-expressing FRT cells as described. The pipette solution contained (in mM): 130 CsCl, 0.5 EGTA, 1 MgCl2, 1 Tris-ATP, and10 HEPES (pH 7.2). The bath solution contained (in mM): 140 NMDG-Cl, 1 CaCl2, 1 MgCl2, 10 glucose and 10 HEPES (pH 7.4). TMEM16A was activated by 5 µM Eact and then inhibited by 150 µM eugenol. Whole-cell currents were elicited by applying hyperpolarizing and depolarizing voltage pulses from a holding potential of 0 mV to potentials between −80 mV and +80 mV in 20 mV steps. Currents were digitized, filtered at 5 kHz, and sampled at 1 kHz.
# mouse ileum = assay: Intestinal smooth muscle contraction, mouse ileal segments ex vivo
# Protocol: Wild type CD1 mice (age 8–10 weeks) were killed by avertin overdose (200 mg/kg). The ileum was removed and washed with ice-cold HCO3 ^−-buffered solution. The ends of the ileal segments were tied with silk thread and connected to a force transducer. Ileal segments were equilibrated for 60 min with a resting force of ∼1 mN, with changes of the bathing solution every 15 min. […] Data were recorded using MP100, Biopac digital acquisition system and analyzed using Acknowledge 3.5.7 software.
# tracheal smooth muscle = tested on: tracheal smooth muscle; parameters: method as in PMID 21077946; details: read-out: IC50 for inhibition of tracheal smooth muscle contraction; cited from earlier work
# [7] = tested on: CaCC in T84 human colonic epithelial cells; assay: Short-circuit current in T84 cells (ATP-stimulated native CaCC Cl- current); assay type: cell-based; details: 100 µM tannic acid
# Protocol: as §2
# [8] = rat, oral 40 mg/kg, ref 30 (Lionnet et al.)
molecule,measurement,setting,value
"C=CCc1ccc(O)c(OC)c1 [compound 1, 4-allyl-2-methoxyphenol]",extent of inhibition of TMEM16A Cl- conductance,human TMEM16A [1],fully inhibited
same,inhibition at 1000 µM,"human TMEM16A [1]; FRT, read-out: inhibition of TMEM16A at 1 mM",> 95%
same,IC50,"human TMEM16A [1]; IC50 for inhibition of TMEM16A Cl- current, Eact (10 µM)-stimulated short-circuit current, FRT cells",154 µM and ~150 µM
same,inhibition of ionomycin-activated TMEM16A Cl- current,"human TMEM16A [1]; eugenol added 5 min prior to 1 µM ionomycin, amphotericin B permeabilized, Cl- gradient",concentration-dependent inhibition
same,inhibition at 200 µM,human TMEM16A [2]; FRT,51 ± 7%
same,IC50,[3],157 µM
same,effect on CFTR Cl- conductance,CFTR; eugenol up to 1 mM,little effect
same,serum concentration following intravenous administration,[4]; intravenous,180 µM
same,concentration in brain and spinal cord after oral administration,[4]; [8],2.8 µM
same,concentration in serum after oral administration,[4]; [8],0.6 µM
same,serum concentration (similar oral study),[4]; rats,1.5 µM
same,IC50,[5],~300 µM
same,effect on cytoplasmic Ca2+ in response to ATP,[6],did not inhibit
same,block mechanism of TMEM16A chloride current,TMEM16A,voltage-independent block
same,IC50,"mouse ileum; Mus musculus, read-out: IC50 for inhibition of intestinal smooth muscle contraction",~150 µM
same,inhibition of ileal contractions following activation by Eact,mouse ileum; atropine added initially,inhibition
same,effect on contraction frequency,mouse ileum; mouse ileal segments ex vivo,small effect
same,effect on resting and maximal tone,mouse ileum; mouse ileal segments ex vivo,more marked effect
same,inhibition of spontaneous intestinal contractions,"mouse ileum; mouse ileal segments ex vivo, listed as Eugenol",strong inhibition
same,inhibition of spontaneous intestinal contractions,"mouse ileum; mouse ileal segments ex vivo, listed as eugenol",inhibited by eugenol in a dose-dependent manner
same,IC50,tracheal smooth muscle,~600 µM
tannic acid,inhibition of ATP-stimulated CaCC Cl- current,[7],completely inhibited
"O=C(O)c1ccc(/C=C2\SC(=S)N(c3cccc(C(F)(F)F)c3)C2=O)cc1 [CFTRinh-172, reference compound]",inhibition of CFTR Cl- current,CFTR; 10 µM CFTRinh-172,completely inhibited
"CCc1c(C)nc(SCC(=O)Nc2nc(-c3ccc(OC)cc3)cs2)[nH]c1=O [T16Ainh-A01, reference compound]",inhibition of TMEM16A Cl- current by 1 µM T16Ainh-A01,human TMEM16A [1]; 1 µM,~50%
same,inhibition of Eact-stimulated TMEM16A Cl- current,"human TMEM16A [1]; Eact 10 µM, 10 µM T16Ainh-A01",completely inhibited; also recorded: totally inhibited
CCCc1ccc(O)c(OC)c1 [compound 5],% inhibition at 200 μM,human TMEM16A [2],38 ± 7%
